Measurements from patent US9421193B2, “Benzothiazole derivatives and a use thereof for the treatment of cancer” (Korea Institute of Radiological & Medical Sciences, priority 2014, dated 2016).

How the values were obtained:
[1] = test system: non-small cell lung cancer cell strain H460; assay: Trypan blue live cell count (cell viability); format: cell-based, human; settings: FIGS. 3A and 3B, PB12 at 150 μM
Experimental: Whether the cancer cell growth inhibitory effects of the compounds PB01 and PB11 on the non-small cell lung cancer cell strains is associated with apoptosis was investigated. The cell growth inhibitory effects were evaluated by a trypan blue assay, and cell shapes were observed using an inverted microscope. The shapes of cell nuclei were observed via Hoeschst 33342 staining. Degrees of inducing apoptosis were quantized by flow cytometry (fluorescent activated cell sorting (FACS)).
After about 5×10^3 cells per well of each of the human non-small cell lung cancer cell strains A549 and H460 were portioned into a 96-well plate, about 10 uM to about 50 uM of the compounds PB01 or PB11 in 200 ul of culture solution were added into the wells, and incubated for about 8 to 72 hours. Cells were collected from the incubation product, and centrifuged at about 2,000 rpm for 5 minutes. After removing a supernatant, the remaining cells were mixed with 1 mL of phosphate-buffered saline (PBS) to obtain a cell suspension, which was then mixed with an equal amount of 0.5% trypan blue (Gibco BRL), followed by treatment for about 1 minute. The number of live cells was counted using a phase-contrast) microscope. The live cell counting was repeated three times, and an average live cell count and a standard error were calculated using a Microsoft Excel program. Cell viability graphs with respect to compound concentration and incubation time were obtained. The same experiment was performed with 50 μM of the compound PB01, PB11 50 μM of the compound PB11, or 150 μM of the compound PB12 150 μM, and cell viability graphs with respect to compound concentration and incubation time were obtained.

[2] = test system: non-small cell lung cancer cell strain H460; assay: Apoptosis ratio, Annexin V flow cytometry; format: cell-based, human; settings: about 40 hours, 50 μM PB01, 50 μM PB11, 150 μM PB12, FIGS. 9A and 9B
Experimental: About 5×10^5 cells per well of each of the non-small cell lung cancer cell strains A549 and H460 were portioned into a 6-well plate and then incubated with the compounds PB01 or PB11 for about 40 hours in the same manner as described above. A cell layer was washed with PBS and then treated with trypsin-EDTA solution to isolate cells. The isolated cells were collected and stained with an Annexin V Flous Staining kit (available Roche Applied Science, Penzberg, Germany) in a dark condition for about 30 minutes. The stained cells were analyzed by flow cytometry using a FACScan™ (available from Becton Dicknson) to count the number of dead cells and then calculate an apoptosis ratio. The same experiment was performed with 50 μM of PB01, 50 μM of PB11, or 150 μM of PB12 in the same manner as described above. The graphs of cell viability with respect to compound concentration and incubation time obtained based on the experimental results are shown in FIGS. 9A and 9B.

## Cc1noc(C)c1CSc1nc2ccc(NC(=O)C3CCC(O)CC3)cc2s1 (centres unmarked) [PB12]
[1]
  cancer cell apoptosis effect with respect to concentration and incubation time: improved cancer cell apoptosis effects with increases in concentration and incubation time
[2]
  apoptosis induction (Annexin V): kill the non-small cell lung cancer cells by inducing apoptosis
